Data on 17 molecules can be found in PubChem BioAssay (NCI).

Several values for one entry are separate records, joined by “and”; a condition that tells them apart may be missing. Equal values may be shown once.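 Five compound concentrations were applied to cells in 96-well plates for 48 hours; endpoints were derived by simple linear interpolation of the resulting dose-response curve. The concentration for 50% growth inhibition is given as GI50. The concentration for full growth arrest is given as TGI.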

Some test systems named below: HL-60(TB) leukemia; NCI-H460 lung; KM12 colon; NCI-H522 lung; OVCAR-8 ovarian; HOP-62 NSCLC; SK-OV-3 ovarian; MDA-MB-435; MCF7 breast.
Assay in all cases: inhibition of tumour cell growth, NCI panel, 48 h

For `CC(C)S(=O)(=O)ON1C(=O)c2ccc([N+](=O)[O-])cc2C1=O`, the TGI with HL-60(TB) leukemia, with NCI-H460 lung, with KM12 colon, in the experiment on NCI-H522 lung, in the experiment on OVCAR-8 ovarian and in the experiment on HOP-62 NSCLC was over 100 µM in each case. For the same molecule, the TGI with SK-OV-3 ovarian was over 100 µM.
As for `Clc1cc(-c2csc(Cl)c2)cs1`, the TGI in the experiment with MDA-MB-435, in the experiment with MCF7 breast, in the experiment on HL-60(TB) leukemia, in the experiment on NCI-H460 lung, with KM12 colon and in the experiment on NCI-H522 lung was over 100 µM throughout. The TGI in the experiment on OVCAR-8 ovarian was over 100 µM.
Take `CC(C)C(NCc1c2ccccc2nc2ccccc12)C(=O)O` (stereo not drawn): the TGI in the experiment on HL-60(TB) leukemia is 73.8 µM; with NCI-H460 lung, over 100 µM; with KM12 colon it was over 100 µM; in the experiment on NCI-H522 lung, 91.2 µM; in the experiment on OVCAR-8 ovarian it was over 100 µM; in the experiment on HOP-62 NSCLC it was over 100 µM. For the same molecule, the TGI in the experiment on SK-OV-3 ovarian is over 100 µM.
As for `O=C1NC(=Nc2ccccc2Cl)SC1C(=O)Nc1ccc([N+](=O)[O-])cc1[N+](=O)[O-]` (stereo not drawn), the TGI in the experiment with HL-60(TB) leukemia, in the experiment on NCI-H460 lung, in the experiment on KM12 colon, in the experiment with NCI-H522 lung, in the experiment with OVCAR-8 ovarian and in the experiment with HOP-62 NSCLC was over 100 µM each time. In the experiment with SK-OV-3 ovarian, this molecule registered a TGI of over 100 µM.
For `O=C1CCC(=O)C(C(=O)CCC(=O)Nc2ccc(Cl)cc2)C1` (stereo not drawn), the TGI in the experiment on HL-60(TB) leukemia, in the experiment with NCI-H460 lung, in the experiment on KM12 colon, in the experiment on NCI-H522 lung, with OVCAR-8 ovarian and in the experiment with SK-OV-3 ovarian was over 100 µM in each case.
With `Cc1nc(=O)n2c(c1C(=O)Nc1ccc(Cl)cc1)NCCC2`, the TGI in the experiment with HL-60(TB) leukemia, in the experiment on NCI-H460 lung, in the experiment with KM12 colon, in the experiment on NCI-H522 lung, in the experiment with OVCAR-8 ovarian and in the experiment with HOP-62 NSCLC was over 100 µM each time. The same molecule came in with a TGI with SK-OV-3 ovarian of over 100 µM.
Consider `CC(=O)OC1CC2C(C)(C)C(=O)C=C[C@]2(C)C2CCC3(C)C(=CCC3[C@H](CO)C[C@H](O)C(=O)C(C)(C)O)[C@]12C` (stereo partly drawn), for which the TGI in the experiment on HL-60(TB) leukemia was 43.8 µM; with NCI-H460 lung it was 40.1 µM; with KM12 colon it was 39 µM; in the experiment with NCI-H522 lung, 52.3 µM; with OVCAR-8 ovarian it was 33.1 µM; with SK-OV-3 ovarian, 48.2 µM.
On to `CC1CC(=O)CC[C@@H]1OCc1ccccc1` (stereo partly drawn), for which the TGI in the experiment with HL-60(TB) leukemia, in the experiment on NCI-H460 lung, with KM12 colon, in the experiment with OVCAR-8 ovarian, in the experiment with HOP-62 NSCLC and in the experiment on SK-OV-3 ovarian was over 100 µM each time.
`CCOc1c(Cc2ccccc2)c(=O)n2c3ccccc3n3c(=O)n(C)c(=O)c1c23`: the TGI in the experiment on NCI-H460 lung, with KM12 colon, in the experiment on OVCAR-8 ovarian, with HOP-62 NSCLC and with SK-OV-3 ovarian was over 100 µM each time.
Regarding `c1cc[c]([Sn]([O]c2cccc3cccnc23)([c]2ccccc2)[c]2ccccc2)cc1`, the GI50 is 0.0154 µM in the experiment on NCI-H460 lung; 0.0135 µM in the experiment with KM12 colon; under 0.01 µM with NCI-H522 lung; 0.0184 µM in the experiment with OVCAR-8 ovarian; 0.0482 µM in the experiment with HOP-62 NSCLC; 0.0192 µM in the experiment with SK-OV-3 ovarian. For the same molecule, the TGI in the experiment with NCI-H460 lung was found to be 0.0321 µM; with KM12 colon, 0.0267 µM; in the experiment on OVCAR-8 ovarian, 0.0336 µM; in the experiment on HOP-62 NSCLC it was 0.145 µM; in the experiment on SK-OV-3 ovarian it was 0.038 µM.
For the molecule `Cc1ccc(/C=C2\CN(C(=O)CCN3CCC(=NO)CC3)C/C(=C\c3ccc(C)cc3)C2=O)cc1`, in the experiment on HL-60(TB) leukemia, the GI50 is 1.69 µM and the TGI was 4.6 µM.
Regarding `COc1ccc(CN[C@H]2CCc3cc(OC)c(OC)c(OC)c3-c3ccc(SC)c(=O)cc32)c(OC)c1OC`, the GI50 is under 0.01 µM in the experiment with HL-60(TB) leukemia, under 0.01 µM in the experiment on KM12 colon and 0.375 µM in the experiment with HOP-62 NSCLC. In addition, the TGI was 0.0767 µM in the experiment on NCI-H460 lung; 0.228 µM and 0.0408 µM in the experiment on KM12 colon; 0.0495 µM in the experiment with NCI-H522 lung; over 100 µM with HOP-62 NSCLC; over 100 µM in the experiment on SK-OV-3 ovarian.
Turning to `CN(C)/C=C/C(=O)c1cccc(C(=O)/C=C/N(C)C)n1`, the TGI in the experiment on HL-60(TB) leukemia, in the experiment on NCI-H460 lung, in the experiment on KM12 colon, with NCI-H522 lung, in the experiment on OVCAR-8 ovarian and in the experiment with HOP-62 NSCLC was over 100 µM each time. The molecule also gave a TGI in the experiment with SK-OV-3 ovarian of over 100 µM.
On to `C=C1C(=O)O[C@H]2[C@H]1CC/C(COC(=O)c1ccc(Br)cc1)=C\CC[C@@]1(C)O[C@@H]21`, for which the GI50 is 1.79 µM in the experiment with MDA-MB-435; 0.645 µM with MCF7 breast; 0.664 µM in the experiment on HL-60(TB) leukemia; 1.99 µM in the experiment on NCI-H460 lung; 1.8 µM in the experiment on KM12 colon; 1.33 µM with NCI-H522 lung. Further, the GI50 in the experiment on OVCAR-8 ovarian is 1.87 µM; in the experiment with SK-OV-3 ovarian, 14.8 µM. Moreover, the TGI in the experiment on MDA-MB-435 was 3.5 µM; with MCF7 breast, 2.97 µM; with HL-60(TB) leukemia, 3.37 µM; in the experiment on NCI-H460 lung it was 4.3 µM; in the experiment on KM12 colon, 3.66 µM; with NCI-H522 lung, 2.8 µM. The TGI with OVCAR-8 ovarian is 5 µM; in the experiment with SK-OV-3 ovarian, 28.1 µM.
In the case of `O=C(O)CSc1nnc(COc2ccccc2)n1-c1ccccc1`, the TGI in the experiment with HL-60(TB) leukemia, in the experiment with NCI-H460 lung, in the experiment on KM12 colon, with NCI-H522 lung, in the experiment with OVCAR-8 ovarian and in the experiment on HOP-62 NSCLC was over 100 µM each time. In the experiment with SK-OV-3 ovarian, the TGI is over 100 µM.
As for `COC(=O)C1=C(c2cc(OC)c(OC)c(OC)c2)OC(c2cc(OC)c(OC)c(OC)c2)C1` (stereo not drawn), the TGI in the experiment on NCI-H460 lung was over 100 µM; with KM12 colon it was 32.4 µM; in the experiment on OVCAR-8 ovarian, over 100 µM; in the experiment on HOP-62 NSCLC, over 100 µM; in the experiment with SK-OV-3 ovarian, 71 µM.
For the molecule `COC(=O)C([O][Ge]([CH3])([CH3])[CH3])c1ccccc1` (stereo not drawn), the GI50 in the experiment with HL-60(TB) leukemia was 90.8 µM; with NCI-H460 lung, over 100 µM; with KM12 colon, over 100 µM; in the experiment with NCI-H522 lung it was over 100 µM; in the experiment with OVCAR-8 ovarian, over 100 µM; in the experiment with HOP-62 NSCLC it was over 100 µM. The GI50 in the experiment with SK-OV-3 ovarian was over 100 µM. For the same molecule, the TGI with HL-60(TB) leukemia, in the experiment with NCI-H460 lung, with KM12 colon, with NCI-H522 lung, with OVCAR-8 ovarian and with HOP-62 NSCLC was over 100 µM each time. This molecule came in with a TGI in the experiment with SK-OV-3 ovarian of over 100 µM.
